Reference: patent US9328106B2, “Cyclic ether pyrazol-4-yl-heterocyclyl-carboxamide compounds and methods of use” (Genentech, Inc., priority 2012, dated 2016)

molecular target: PIM1 (Homo sapiens (Human), UniProt P11309); assay: biochemical; assay type: biochemical; details: 20 pM PIM1, 1 μM FAM-peptide, 10 μM ATP, 90 minutes at room temperature; read-out: PIM1 LC3K (KI)
Sequence (P11309 whole entry): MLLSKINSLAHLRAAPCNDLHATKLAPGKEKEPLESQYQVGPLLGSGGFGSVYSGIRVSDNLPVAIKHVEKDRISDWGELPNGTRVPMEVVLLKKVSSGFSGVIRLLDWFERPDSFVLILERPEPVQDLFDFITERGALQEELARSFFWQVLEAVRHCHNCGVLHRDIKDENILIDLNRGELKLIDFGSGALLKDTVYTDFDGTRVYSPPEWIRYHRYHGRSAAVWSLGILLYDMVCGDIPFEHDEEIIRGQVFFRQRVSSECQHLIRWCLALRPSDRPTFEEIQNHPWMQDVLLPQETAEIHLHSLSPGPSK

| Compound | Ki |
| --- | --- |
| Cc1ccc(F)c(-c2nc(C(=O)Nc3cnn(C)c3[C@@H]3CC[C@@H](N)[C@H](F)CO3)cs2)c1 [Example 238, N-(5-((2S,5R,6S)-5-amino-6-fluorooxepan-2-yl)-1-methyl-1H-pyrazol-4-yl)-2-(2-fluoro-5-methylphenyl)thiazole-4-carboxamide] | 48 pM |
| Cn1ncc(NC(=O)c2csc(-c3cncc(F)c3)n2)c1[C@@H]1CC[C@@H](N)[C@H](F)CO1 [Example 239, N-(5-((2S,5R,6S)-5-amino-6-fluorooxepan-2-yl)-1-methyl-1H-pyrazol-4-yl)-2-(5-fluoropyridin-3-yl)thiazole-4-carboxamide] | 2660 pM |
| Cc1nn(C)cc1-c1nc(C(=O)Nc2cnn(C)c2[C@@H]2CC[C@@H](N)[C@H](F)CO2)cs1 [Example 241, N-(5-((2S,5R,6S)-5-amino-6-fluorooxepan-2-yl)-1-methyl-1H-pyrazol-4-yl)-2-(1,3-dimethyl-1H-pyrazol-4-yl)thiazole-4-carboxamide] | 283 pM |
| Cc1c(-c2nc(C(=O)Nc3cnn(C)c3[C@@H]3CC[C@@H](N)[C@H](F)CO3)cs2)cnn1C [Example 242, N-(5-((2S,5R,6S)-5-amino-6-fluorooxepan-2-yl)-1-methyl-1H-pyrazol-4-yl)-2-(1,5-dimethyl-1H-pyrazol-4-yl)thiazole-4-carboxamide] | 218 pM |
| Cc1noc(C)c1-c1nc(C(=O)Nc2cnn(C)c2[C@@H]2CC[C@@H](N)[C@@H](F)CO2)cs1 [Example 244, N-(5-((2S,5R,6R)-5-amino-6-fluorooxepan-2-yl)-1-methyl-1H-pyrazol-4-yl)-2-(3,5-dimethylisoxazol-4-yl)thiazole-4-carboxamide] | 5980 pM |
| Cn1ncc(NC(=O)c2csc(-c3c(F)cncc3F)n2)c1[C@@H]1CC[C@@H](N)[C@@H](F)CO1 [Example 247, N-(5-((2S,5R,6R)-5-amino-6-fluorooxepan-2-yl)-1-methyl-1H-pyrazol-4-yl)-2-(3,5-difluoropyridin-4-yl)thiazole-4-carboxamide] | 112 pM |
| Cn1ncc(NC(=O)c2csc(-c3cccc(Cl)c3F)n2)c1[C@@H]1CC[C@@H](N)[C@@H](F)CO1 [Example 248, N-(5-((2S,5R,6R)-5-amino-6-fluorooxepan-2-yl)-1-methyl-1H-pyrazol-4-yl)-2-(3-chloro-2-fluorophenyl)thiazole-4-carboxamide] | 64 pM |
| Cn1ncc(NC(=O)c2csc(-c3cccc(-c4cccc(Cl)c4F)c3F)n2)c1[C@@H]1CC[C@@H](N)[C@@H](F)CO1 [Example 249, N-(5-((2S,5R,6R)-5-amino-6-fluorooxepan-2-yl)-1-methyl-1H-pyrazol-4-yl)-2-(3′-chloro-2,2′-difluoro-[1,1′-biphenyl]-3-yl)thiazole-4-carboxamide] | 533 pM |
| Cn1ncc(NC(=O)c2csc(-c3cccc(F)c3Cl)n2)c1[C@@H]1CC[C@@H](N)[C@@H](F)CO1 [Example 250, N-(5-((2S,5R,6R)-5-amino-6-fluorooxepan-2-yl)-1-methyl-1H-pyrazol-4-yl)-2-(2-chloro-3-fluorophenyl)thiazole-4-carboxamide] | 132 pM |
| Cn1ncc(NC(=O)c2csc(-c3cccc(F)c3-c3cccc(F)c3Cl)n2)c1[C@@H]1CC[C@@H](N)[C@@H](F)CO1 [Example 251, N-(5-((2S,5R,6R)-5-amino-6-fluorooxepan-2-yl)-1-methyl-1H-pyrazol-4-yl)-2-(2′-chloro-3′,6-difluoro-[1,1′-biphenyl]-2-yl)thiazole-4-carboxamide] | 630000 pM |
| Cn1cc(-c2nc(C(=O)Nc3cnn(C)c3[C@@H]3CC[C@@H](N)[C@@H](F)CO3)cs2)c(C2CC2)n1 [Example 253, N-(5-((2S,5R,6R)-5-amino-6-fluorooxepan-2-yl)-1-methyl-1H-pyrazol-4-yl)-2-(3-cyclopropyl-1-methyl-1H-pyrazol-4-yl)thiazole-4-carboxamide] | 253 pM |
| Cc1nn(C)cc1-c1nc(C(=O)Nc2cnn(C)c2[C@@H]2CC[C@@H](N)[C@@H](F)CO2)c(N)s1 [Example 254, 5-amino-N-(5-((2S,5R,6R)-5-amino-6-fluorooxepan-2-yl)-1-methyl-1H-pyrazol-4-yl)-2-(1,3-dimethyl-1H-pyrazol-4-yl)thiazole-4-carboxamide] | 26 pM |
| Cc1c(-c2nc(C(=O)Nc3cnn(C)c3[C@@H]3CC[C@@H](N)[C@@H](F)CO3)c(N)s2)cnn1C [Example 255, 5-amino-N-(5-((2S,5R,6R)-5-amino-6-fluorooxepan-2-yl)-1-methyl-1H-pyrazol-4-yl)-2-(1,5-dimethyl-1H-pyrazol-4-yl)thiazole-4-carboxamide] | 7 pM |
| CC(C)n1cc(-c2nc(C(=O)Nc3cnn(C)c3[C@@H]3CC[C@@H](N)[C@@H](F)CO3)c(N)s2)cn1 [Example 256, 5-amino-N-(5-((2S,5R,6R)-5-amino-6-fluorooxepan-2-yl)-1-methyl-1H-pyrazol-4-yl)-2-(1-isopropyl-1H-pyrazol-4-yl)thiazole-4-carboxamide] | 93 pM |
| Cc1c(-c2nc(C(=O)Nc3cnn(C)c3[C@@H]3CC[C@@H](N)[C@H](F)CO3)c(N)s2)cnn1C [Example 257, 5-amino-N-(5-((2S,5R,6S)-5-amino-6-fluorooxepan-2-yl)-1-methyl-1H-pyrazol-4-yl)-2-(1,5-dimethyl-1H-pyrazol-4-yl)thiazole-4-carboxamide] | 25 pM |

More lines, now with the values ahead:

| Ki | Compound |
| --- | --- |
| 107 pM | Cn1ncc(NC(=O)c2csc(-c3ncccc3F)n2)c1[C@@H]1CC[C@@H](N)[C@H](F)CO1 [Example 237, N-(5-((2S,5R,6S)-5-amino-6-fluorooxepan-2-yl)-1-methyl-1H-pyrazol-4-yl)-2-(3-fluoropyridin-2-yl)thiazole-4-carboxamide] |
| 340 pM | Cn1ncc(NC(=O)c2csc(-c3ccncc3F)n2)c1[C@@H]1CC[C@@H](N)[C@H](F)CO1 [Example 240, N-(5-((2S,5R,6S)-5-amino-6-fluorooxepan-2-yl)-1-methyl-1H-pyrazol-4-yl)-2-(3-fluoropyridin-4-yl)thiazole-4-carboxamide] |
| 47 pM | Cn1ncc(NC(=O)c2csc(-c3c(F)ccc(F)c3F)n2)c1[C@@H]1CC[C@@H](N)[C@H](F)CO1 [Example 243, N-(5-((2S,5R,6S)-5-amino-6-fluorooxepan-2-yl)-1-methyl-1H-pyrazol-4-yl)-2-(2,3,6-trifluorophenyl)thiazole-4-carboxamide] |
| 104 pM | Cn1ncc(NC(=O)c2csc(-c3cccc(F)c3F)n2)c1[C@@H]1CC[C@@H](N)[C@@H](F)CO1 [Example 245, N-(5-((2S,5R,6R)-5-amino-6-fluorooxepan-2-yl)-1-methyl-1H-pyrazol-4-yl)-2-(2,3-difluorophenyl)thiazole-4-carboxamide] |
| 5760 pM | Cn1ncc(NC(=O)c2csc(-c3cncc(F)c3)n2)c1[C@@H]1CC[C@@H](N)[C@@H](F)CO1 [Example 246, N-(5-((2S,5R,6R)-5-amino-6-fluorooxepan-2-yl)-1-methyl-1H-pyrazol-4-yl)-2-(5-fluoropyridin-3-yl)thiazole-4-carboxamide] |
| 281 pM | Cn1cc(-c2nc(C(=O)Nc3cnn(C)c3[C@@H]3CC[C@@H](N)[C@@H](F)CO3)cs2)c(C(F)(F)F)n1 [Example 252, N-(5-((2S,5R,6R)-5-amino-6-fluorooxepan-2-yl)-1-methyl-1H-pyrazol-4-yl)-2-(1-methyl-3-(trifluoromethyl)-1H-pyrazol-4-yl)thiazole-4-carboxamide] |
